# Where “and” joins values, the source holds several entries; their conditions need not be identical. Equal entries are not always repeated.
# Key:
# [1] = test system: exercise induced pulmonary hemorrhage (EIPH); blood in the trachea; experiment: Endoscopic EIPH scoring (Pascoe et al. 1985) after maximum exercise, placebo-controlled crossover; assay type: in vivo; design: key: 0: Zero indicates an absence of EIPH; 1 to 4 indicated increasing amounts of blood observed endoscopically in the trachea; conditions: 10 μg/kg of E4021 prior to maximum exercise (>1,000 meters); videoendoscopy about 60 to 90 minutes after exercise; one value per individual horse (Horse 1-8) with previous EIPH; sesquihydrate
# Description: (§1) Eight horses with previous evidence of EIPH were enrolled in the study. The candidate horses served as their own control and a predetermined rest period (no maximum exercise events) of one week was adhered to prior to initiation of the protocol. On initiation of the trial the subject horse received, prior to maximum exercise, either a dose of 10 μg/kg of weight of E4021 or a placebo. The eight horses were exercised in training/mock racing conditions at maximum intensity for greater than 1,000 meters followed by endoscopic exam/scoring about 60 to 90 minutes after the exercise event. Following exercise, the horses were examined with videoendoscopy for evidence of blood in the trachea about 60 minutes to 90 minutes after maximum exercise. The endoscope was passed to the level of the bifurcation of the trachea (carina) with images recorded on videotape.
# An objective scoring system (Pascoe et al. 1985) was used to indicate the presence or absence of EIPH, as well as its severity, if present. […] Scoring was done by the veterinarian conducting the examination, then later by another individual using the recorded examination. […]
# The E4021 was administered from vials containing 50 mg of E4021/30 ml. […] The Pl score was after placebo intervention and the post Tx Score was recorded after administration of E4021. […]
# [2] = Untoward effects and systemic hemodynamics in the treated horses; assay type: in vivo, horse; conditions: eight horses, 10 μg/kg of E4021 prior to maximum exercise
# Description: as §1
smiles,measurement,setting,value
O.O.O.O=C([O-])C1CCN(c2nc(NCc3ccc4c(c3)OCO4)c3cc(Cl)ccc3n2)CC1.O=C([O-])C1CCN(c2nc(NCc3ccc4c(c3)OCO4)c3cc(Cl)ccc3n2)CC1.[Na+].[Na+] [E4021],Post Tx (EIPH endoscopic score recorded after administration of E4021),[1],0 (3×) and 3 and 1 and 2
same,Untoward effects,[2],did not experience any untoward effects
same,"Systemic hemodynamics (e.g. cardiac output, blood pressure)",[2]; versus controls,remained unchanged from controls

# — US8217049B2, “Use of type V phosphodiesterase inhibitors in the treatment of exercise induced pulmonary hemorrhage in the equine” (ANOxA Corp., priority 2006, dated 2012)
